Results on 24 compounds are retold here after patent US6656911B2, “Serine protease inhibitors” (Cortech, Inc., priority 1994, dated 2003).

As usually defined, the Ki is a dissociation constant, usually derived from enzyme kinetics or from competition with a known ligand.

Series [1] concerns the target T1, human neutrophil elastase (HNE) (Homo sapiens, UniProt P08246).
T1 sequence (P08246 30-267): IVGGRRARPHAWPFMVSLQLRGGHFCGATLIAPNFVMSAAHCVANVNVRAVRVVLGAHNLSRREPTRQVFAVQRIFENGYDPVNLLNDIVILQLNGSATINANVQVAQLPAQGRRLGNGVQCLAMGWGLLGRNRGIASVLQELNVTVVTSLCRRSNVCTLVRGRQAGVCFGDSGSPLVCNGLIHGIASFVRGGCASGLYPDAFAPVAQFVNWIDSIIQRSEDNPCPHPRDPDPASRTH
Briefly: HNE Ki of CE compounds, tested as described in WO 96/16080. The series is classed as biochemical. The following applies: read-out: HNE Ki.

Series [2] is described as follows: Blood level screening after oral dose. The following applies: rat, oral gavage 10 mg/kg; for concentration at 3 h / concentration at 1 h: male, Sprague-Dawley, plasma; for concentration at 3 h: read-out: Plasma Levels (μM) 3 hr; for concentration at 1 h: read-out: Plasma Levels (μM) 1 hr. The series is classed as in vivo, Sprague-Dawley rats. The protocol:
The inhibitors were dissolved or suspended in polyethylene glycol (PEG), PEG-400 or PEG:H2O:EtOH at a concentration of 10 mg/ml. Unfasted male Sprague-Dawley rats were given an oral dose of this solution by gavage. Rats received 10 mg inhibitor/kg body weight in a volume of 1 ml/kg. After 1,3 or 6 hr., the rats were killed with an overdose of urethane (2.5 g/kg; i.p.) and the blood collected in a heparinized tube via cardiac puncture. Red blood cells were separated from the plasma by centrifugation.
Depending on the inhibitor, one of four organics (ethyl acetate, toluene, isopropyl ether or methyl t-butyl ether) was used to extract the compound from the plasma. Inhibitor concentrations were measured by HPLC or LC/MS analysis.

On to `Cc1cccc(Cc2nnc(C(=O)C(NC(=O)Cn3c(=O)c(N)cc4ccccc43)C(C)C)o2)c1` (racemic) [CE2228, 3-(R,S)-Amino-quinolin-2-one-N-[1-(2-[5-(3-methylbenzyl)-1,3,4-oxadiazolyl]carbonyl)-2-(R,S)-methylpropyl]acetamide], for which, in series [1], the Ki came to 40 nM. The “Plasma Levels (μM) 1 hr” value in series [2] (1 hr) was found to be 0.714 µM. Further, the “Plasma Levels (μM) 3 hr” value in series [2] came out at 1.393 µM. The “Plasma Levels (μM) 6 hr” value in series [2] (6 hr) amounted to 0.409 µM.

Turning to `Cc1cccc(Cc2nc(C(=O)[C@@H](NC(=O)[C@@H]3CCCN3C(=O)[C@@H](NC(=O)OCc3ccccc3)C(C)C)C(C)C)no2)c1` [CE2055, (Benzyloxycarbonyl)-L-valyl-N-[1-(3-[5-(3-methylbenzyl)-1,2,4-oxadiazolyl]carbonyl)-2-(S)-methylpropyl]-L-prolinamide], the concentration at 3 h in series [2] worked out at 0.002 µM.

On to `Cc1cccc(Cc2nnc(C(=O)C(NC(=O)CN3C(=O)CCc4ccccc43)C(C)C)o2)c1` (stereo not shown) [CE2088, 3,4-Dihydro-quinoline-2-one-N-[1-(2-[5-(3-methylbenzyl)-1,3,4-oxadiazolyl]carbonyl)-2-N-methylpropyl]acetamide], for which the Ki in series [1] was 66 nM. Further, the concentration at 1 h in series [2] (1 hr) was 0.801 µM. The concentration at 3 h in series [2] came out at 0.755 µM.

`CC(=O)N1CC(=O)N(CC(=O)N[C@H](C(=O)c2nnc(Cc3cccc(C)c3)o2)C(C)C)C(=Cc2ccccc2)C1=O` [CE2099, 1-Acetyl-3-benzylidene piperazine-2,5-dione-N-[1-(2-[5-(3-methylbenzyl)-1,3,4-oxadiazolyl]carbonyl)-2-(S)-methylpropyl]acetamide]: the Ki in series [1] is 1.9 nM. Besides, the concentration at 3 h in series [2] came out at 0.042 µM.

Take `CC(=O)N1CC(=O)N(CC(=O)N[C@H](C(=O)c2nnc(Cc3cccc(C)c3)o2)C(C)C)C(=Cc2ccc(N(C)C)cc2)C1=O` [CE2111, 1-Acetyl-3-(4-dimethylaminobenzylidene) piperazine-2,5-dione-N-[1-(2-[5-(3-methylbenzyl)-1,3,4-oxadiazolyl]carbonyl)-2-(S)-methylpropyl]acetamide]: in series [1], the inhibition constant (Ki) is 20 nM. Also, in series [2], the concentration at 3 h worked out at 0.69 µM.

As for `Cc1cccc(Cc2nnc(C(=O)[C@@H](NC(=O)Cn3c(=O)c(N)cc4ccccc43)C(C)C)o2)c1` [CE2113, 3-(Amino-quinoline-2-one)-N[1-(2-[5-(3-methylbenzyl)-1,3,4-oxadiazolyl]carbonyl)-2-(S)-methylpropyl]acetamide], the Ki in series [1] worked out at 39 nM. Also, the concentration at 1 h in series [2] (1 hr) worked out at 1.83 µM. The concentration at 3 h in series [2] was 0.909 µM.

For the compound `CC(C)[C@H](NC(=O)[C@@H]1Cc2ccccc2N1C(=O)[C@@H](NC(=O)OCc1ccccc1)C(C)C)C(=O)c1noc(Cc2cccc(C(F)(F)F)c2)n1` [CE2125, (Benzyloxycarbonyl)-L-valyl-2-L-(2,3-dihydro-1H-indole)-N-[1-(3-[5-(3-trifluoromethylbenzyl)-1,2,4-oxadiazolyl]carbonyl)-2-(S)-methylpropyl]amide], in series [1], the Ki is 0.4 nM. In series [2], the concentration at 3 h was determined as 0.011 µM.

Take `CC(C)[C@H](NC(=O)CN1C(=O)N[C@H](Cc2ccccc2)C1=O)C(=O)c1noc(Cc2cccc(C(F)(F)F)c2)n1` [CE2141, 5-(R)-Benzyl-2,4-imidazolidinedione-N-[1-(3-[5-(3-trifluoromethylbenzyl)-1,2,4-oxadiazolyl]carbonyl)-2-(S)-methylpropyl]acetamide]: in series [1], the Ki amounted to 64 nM. The “Plasma Levels (μM) 3 hr” value in series [2] was found to be 0.005 µM.

Consider `Cc1cccc(Cc2nnc(C(=O)[C@@H](NC(=O)CN3C(=O)CN(CCN4CCOCC4)C(=O)[C@H]3Cc3ccccc3)C(C)C)o2)c1` [CE2162, 4-[1-(2-N-Morpholino)ethyl-3-(R)-benzylpiperazine-2,5-dione]-N-[1-(2-[5-(3-methylbenzyl)-1,3,4-oxadiazolyl]carbonyl)-2-(S)-methylpropyl]acetamide], for which the inhibition constant (Ki) in series [1] was found to be 10.6 nM. In addition, the concentration at 3 h in series [2] stood at 0.025 µM.

On to `Cc1cccc(Cc2nnc(C(=O)[C@@H](NC(=O)CN(Cc3ccccc3)C(=O)c3ccc[nH]3)C(C)C)o2)c1` [CE2164, (Pyrrole-2-carbonyl)-N-(benzyl)glycyl-N-[1-(2-[5-(3-methylbenzyl)-1,3,4-oxadiazolyl]carbonyl)-2-(S)-methylpropyl]amide], for which the Ki in series [1] turned out to be 17 nM. Also, the concentration at 3 h in series [2] came to 0.034 µM.

With `CC(C)[C@H](NC(=O)CN1C(=O)NC(c2ccccc2)C1=O)C(=O)c1noc(Cc2cccc(C(F)(F)F)c2)n1` (stereo partly drawn) [CE2198, 4-(R,S)-Phenyl-2,5-imidazolidinedione-N-[1-(3-[5-(3-trifluoromethylbenzyl)-1,2,4-oxadiazolyl]carbonyl)-2-(S)-methylpropyl]acetamide], the Ki in series [1] amounted to 3.1 nM.

Turning to `CC(C)[C@H](NC(=O)CN1C(=O)NC(c2ccc(N(C)C)cc2)C1=O)C(=O)c1noc(Cc2cccc(C(F)(F)F)c2)n1` (stereo partly drawn) [CE2200, [4-(R,S)-(4-Dimethylaminophenyl)]-2,5-imidazolidinedione-N-[1-(3-[5-(3-trifluoromethylbenzyl)-1,2,4-oxadiazolyl]carbonyl)-2-(S)-methylpropyl]acetamide], the Ki in series [1] stood at 13.7 nM.

With `Cc1cccc(Cc2nnc(C(=O)[C@@H](NC(=O)[C@@H]3CCCN3C(=O)[C@@H](NC(=O)OC(C)C)C(C)C)C(C)C)o2)c1` [CE2202, Isopropyloxycarbonyl-L-valyl-N-[1-(2-[5-(3-methylbenzyl)-1,3,4-oxadiazolyl]carbonyl)-2-(S)-methylpropyl]-L-prolinamide], the inhibition constant (Ki) in series [1] came to 0.12 nM.

In the case of `Cc1cccc(Cc2nnc(C(=O)C(NC(=O)CN3CC(=O)NC[C@H]3c3ccccc3)C(C)C)o2)c1` (stereo partly drawn) [CE2208, (2-(R)-Phenylpiperazin-5-one)-N-[1-(2-[5-(3-methylbenzyl)-1,3,4-oxadiazolyl]carbonyl)-2-(R,S)-methylpropyl]acetamide], the Ki in series [1] is 40 nM.

As for `Cc1cccc(Cc2nnc(C(=O)[C@@H](NC(=O)CN(Cc3ccccc3)C(=O)Cc3ccccc3)C(C)C)o2)c1` [CE2210, (N-Benzylcarbonyl)-N-(benzyl)glycyl-N-[1-(2-[5-(3-methylbenzyl)-1,3,4,-oxadiazolyl]carbonyl)-2-(S)-methylpropyl]amide], in series [1], the Ki worked out at 22.7 nM.

As for `Cc1cccc(Cc2nnc(C(=O)[C@@H](NC(=O)CN3CCC(n4c(=O)[nH]c5ccccc54)CC3)C(C)C)o2)c1` [CE2212, 3-[1-(4-Piperidine)]-benzimidazolidin-2-one-N-[1-(2-[5-(3-methylbenzyl)-1,3,4-oxadiazolyl]carbonyl)-2-(S)-methylpropyl]acetamide], the Ki in series [1] was found to be 124 nM.

On to `CC(C)[C@H](NC(=O)CN1Cc2ccccc2NC1=O)C(=O)c1noc(Cc2cccc(C(F)(F)F)c2)n1` [CE2219, 1,4-Quinazolin-2-one-N-[1-(3-[5-(3-trifluoromethylbenzyl)-1,2,4-oxadiazolyl]carbonyl)-2-(S)-methylpropyl]acetamide], for which the inhibition constant Ki in series [1] was 537 nM.

As to `Cc1cccc(Cc2nc(C(=O)C(NC(=O)[C@@H]3Cc4cccc5c4N3C(=O)[C@@H](N)CC5)C(C)C)no2)c1` (stereo partly drawn) [CE2220, (2S,5S)-5-Amino-1,2,4,5,6,7-hexahydroazepino-[3.2.1]-indole-4-one-carbonyl-N-[1-(3-[5-(3-methylbenzyl)-1,2,4-oxadiazolyl]carbonyl)-2-(R,S)-methylpropyl]amide], the Ki in series [1] was found to be 52 nM.

As for `Cc1cccc(Cc2nc(C(=O)C(NC(=O)CN3C(=O)C(N)N=C(c4ccccc4)c4ccccc43)C(C)C)no2)c1` [CE2221, (R,S)-3-Amino-2-oxo-5-phenyl-1,4-benzodiazepine-N-[1-(3-[5-(3-methylbenzyl)-1,2,4-oxadiazolyl]carbonyl)-2-(R,S)-methylpropyl]acetamide], in series [1], the Ki worked out at 34 nM.

Take `CC(C)[C@H](NC(=O)Cn1c(-c2ccc(F)cc2)ccc(N)c1=O)C(=O)c1nnc(Cc2ccc3c(c2)OCO3)o1` [CE2261]: in series [1], the Ki was found to be 0.36 nM.

Consider `Cc1cccc(Cc2nnc(C(=O)[C@@H](NC(=O)Cn3c(-c4cccs4)ncc(N)c3=O)C(C)C)o2)c1` [CE2262, 2-[5-Amino-6-oxo-2-thiophenyl-1,6-dihydro-1-pyrimidinyl]-N-[1-(2-[5-(3-methylbenzyl)-1,3,4-oxadiazolyl]carbonyl)-2-(S)-methylpropyl]acetamide], for which the Ki in series [1] is 0.42 nM.

For `Cc1cccc(Cc2nnc(C(=O)[C@@H](NC(=O)Cn3c(-c4cccnc4)ncc(N)c3=O)C(C)C)o2)c1` [CE2263, 2-[5-Amino-6-oxo-2-(3-pyridyl)-1,6-dihydro-1-pyrimidinyl]-N-[1-(2-[5-(3-methylbenzyl)-1,3,4-oxadiazolyl]carbonyl)-2-(S)-methylpropyl]acetamide], the Ki in series [1] was found to be 0.67 nM.

As for “(Benzyloxycarbonyl)-L-valyl-N-[1-(2-[5-(1-napthylenyl)-1,3,4-xadiazolyl]carbonyl)-2-(S)-methylpropyl]-L-prolinamide [CE2124]”, the inhibition constant (Ki) in series [1] is 0.033 nM.

Take “(R,S)-3-Amino-2-oxo-5-phenyl-1,4-(6-2′-chlorobenzodiazepine)-N-[1-(2-[5-phenyl-1,3,4-oxadiazolyl]carbonyl)-2-(R,S)-propyl]acetamide [CE2211]”: in series [1], the Ki was found to be 348 nM.
